The nature of data set [1]: stability of the azide in acidified aqueous MeOD (19F NMR, FTIR). It counts as physicochemical. On the procedure: The azide compounds according to the present invention are stable even in strongly acidic aqueous environment. […] Its ^19F NMR spectrum is acquired within 5 min and again after 21 days. […] This was further confirmed through FTIR analysis of the solid recovered by evaporation after the ^19F NMR experiment. No change in the azide stretching intensity (νasN3, 2129 cm^−1) normalized against benzene (νring, 1546 cm^−1) was observed.

Data set [2] is described as follows: solubility in solvents. It counts as physicochemical.

In the case of “N,N-dimethyl-N,N-dipropylene bis(4-azido-2,3,5,6-tetrafluorobenzamide) ammonium iodide”, the “change of 19F NMR spectrum” value in data set [1] (16 mg mL^-1 in acidified deuterated MeOD containing 2.4 M HCl and 6.5 M H2O, within 5 min vs after 21 days) is recorded as “No observable change”. The “change in azide stretching intensity (FTIR, 2129 cm^-1) normalized against benzene ring band” value in data set [1] (solid recovered by evaporation after the 19F NMR experiment (21 days in acidic aqueous MeOD)) is reported as “No change”. `C[N+](C)(CCCNC(=O)c1c(F)c(F)c(N=[N+]=[N-])c(F)c1F)CCCNC(=O)c1c(F)c(F)c(N=[N+]=[N-])c(F)c1F` [V]: the “solubility in H2O” value in data set [2] is “soluble in H2O”.

Source of the values: patent publication US8105745B2, “Radiation crosslinker” (National University of Singapore, priority 2005, dated 2012).
